Tested on: colitis induced by TNBS in rats
Assay: Colitis induced by TNBS in rats
Format: in vivo, rat
Details: for Weight of the colon: 48 hours after TNBS; for Weight of the colon / Myeloperoxidase activity / iNOS activity / Macroscopic damage (MDS): mean ± SD; for Myeloperoxidase activity / iNOS activity: colon tissue; for Macroscopic damage (MDS): score 0-10
Description: The combined capability of some of the compounds of the invention to inhibit both iNOS and the synthesis of TNFα has led to their activity being checked in an experimental model of colitis caused by a chemical hapten, trinitrobenzene-sulphonic acid (TNBS), which can bind to the tissue proteins and stimulate cell-mediated immunity. The intrarectal administration of TNBS in association with ethanol causes acute inflammation characterised by extensive ulceration and necrosis.
A distal colitis was therefore induced in the rat by intrarectal instillation of TNBS (40 mg/kg) dissolved in 50% ethanol (0.5 ml/rat). The drugs were administered orally twice a day on days −2; −1; 0; +1 and the animals were killed 48 hours after the administration of TNBS.
The parameters examined were: total weight of the colon (g), macroscopic tissue damage “score”, measurement of the tissue myeloperoxidase (MPO) activity, which is a marker of the infiltration of the neutrophiles, and measurement of the iNOS activity (pmoles/g tissue/min.).
The macroscopic score (MDS) was taken on about 10 cm of colon in accordance with the following arbitrary scale:
The tissue MPO measurement was performed according to Velgara et al., JPET 1994. The measurement of the tissue nitrites was performed by applying the method described above for the chondrocytes to the supernatant fluid of the tissue homogenate.
Compound I-4, administered in doses of 5, 10 and 20 mg/kg, and compound I-11 were examined, by administering them orally, in comparison with sulphasalazine (250 mg/kg) and 5-aminosalicylic acid (5-ASA) (100 mg/kg), 2 drugs which are widely used in the treatment of ulcerative colitis.

`CCCCCNC(=S)Nc1ccc(NC(C)=N)cc1` [Compound I-4, N-[4-(N-acetamidine)phenyl]-N′-pentyl Thiourea] was tested, and the “Weight of the colon” value (5 mg/kg orally twice a day) was 2.2 ± 0.2 g, the Myeloperoxidase activity (5 mg/kg orally twice a day) was 5.5 ± 1.4 UMPO/g/min and the iNOS activity (5 mg/kg orally twice a day) was 131.7 ± 91.9 pmol/g/min. The “Macroscopic damage (MDS)” value (5 mg/kg orally twice a day) was 5.0 ± 0.9, the “Weight of the colon” value (10 mg/kg orally twice a day) was 2.1 ± 0.3 g and the Myeloperoxidase activity (10 mg/kg orally twice a day) was 5.0 ± 1.7(*) UMPO/g/min. The iNOS activity (10 mg/kg orally twice a day) was 98.6 ± 60.0 pmol/g/min, the “Macroscopic damage (MDS)” value (10 mg/kg orally twice a day) was 4.4 ± 0.8(*) and the “Weight of the colon” value (20 mg/kg orally twice a day) was 2.0 ± 0.2 g. The Myeloperoxidase activity (20 mg/kg orally twice a day) was 5.1 ± 1.2(*) UMPO/g/min, the iNOS activity (20 mg/kg orally twice a day) was 61.5 ± 31.4 pmol/g/min and the “Macroscopic damage (MDS)” value (20 mg/kg orally twice a day) was 3.5 ± 0.8(*). For the same compound, the “reduction of macroscopic damage” value (doses of 10 and 20 mg/kg) was “about 50%”, the “reduction of the increase in iNOS activity induced by TNBS” value (doses of 10 and 20 mg/kg) was 50% and the “reduction of the increase in tissue MPO activity induced by TNBS” value (doses of 10 and 20 mg/kg) was 40%.
